Results on 2 compounds are retold here after patent publication US20160252532A1, “pH-Biosensors Based on Compounds Produced From Pyruvic Acid For Magnetic Resonance Imaging and Spectroscopy and Their Uses” (TECHNISCHE UNIVERSITÄT MÜNCHEN, priority 2013, published 2016).

One series has as its system HeLa cells. The series can be described thus: MTT assay cell viability (cytotoxicity test). It counts as cell-based. As to conditions: 0.4 to 50 mM, 24 hours, up to tested concentration of 50 mM, ZA 100% pure, OMPD 80% OMPD/20% ZA. The protocol:
MTT assay with HeLa cells for testing cell viability after exposure to (A) OMPD and (B) zymonic acid (ZA) (0.4 to 50 mM) for 24 hours.
(12C, ZA: 100% pure; OMPD: 80% OMPD, 20% ZA).
Purified zymonic acid and OMPD were tested in a MTT assay with HeLa cells for testing cell viability after exposure to each substance at concentrations of 0.4 to 50 mM for 24 hours. After 24 hours incubation time, both substances are not cytotoxic up to the tested concentration of 50 mM.
On the technique in general: Formazan colour is commonly taken as a measure of viable cells.

The next series relates to rats. Nature of the series: Toxicity tests in rats. It counts as in vivo. The procedure: Toxicity tests with a volume of 5 mL/kg at an injection rate of 0.2 mL/s for three different concentrations (20 mM (A), 40 mM (B), 80 mM (C)). Injection solution contained 80 mM Tris buffer solution, titrated with 1M NaOH to pH 7.4.
20 mM, 40 mM, and 80 mM zymonic acid were injected into 3 rats within one week with 1 day break in between each injection (see FIG. 14).
Blood pressure, heart rate, blood oxygenation and animal temperature were monitored 10 minutes before and after the injection.

The conditions of series [1]: cited from earlier work.
In the next series the test system is rat bladder. The series can be described thus: In vivo pH determination in rat bladder with copolarized zymonic acid and urea. To be noted: injection into rat bladder via catheter, 10 mm slice. The text has this: FIG. 19. Copolarization of zymonic acid and urea, injection into the rat bladder via a catheter.
A 10 mm slice covering the bladder volume was chosen.
6 injections of copolarized zymonic acid in healthy rats via a catheter directly into the bladder followed by pH-imaging and pH-control of the urine before an after injection by pH-electrode (see FIG. 19).

Series [2] in a line: Stability in aqueous solution. Format: physicochemical. The procedure: An exemplary ^13C spectrum (left column) and ^1H spectrum (right column) of zymonic acid produced from [1-^13C]-pyruvic acid. The relevant peaks 1 to 5, which shift in dependency of the pH value of the sample, are marked. The proton spectra show a buffered solution of zymonic acid in water and D2O, once measured right after preparation of the solution (top right) and 24 h later (bottom right).
The assignment of the NMR-peaks of zymonic acid was done using NMR prediction software (ChemDraw®) and standard 1D- and 2D-NMR-spectroscopy (see FIG. 5). […] The relevant peaks 1 to 5, which shift in dependency of the pH value of the sample, are marked. […] The proton spectra show a buffered solution of zymonic acid in water and D2O, once measured right after preparation of the solution (top right of FIG. 5) and 24 h later (bottom right of FIG. 5).

Another series relates to MCF-7 tumor cells. Nature of the series: 13C-OMPD in cell culture medium with MCF-7 tumor cells immobilized in alginate beads (extracellular pH). Format: cell-based. As to conditions: ca. 6 mM fully-labeled 13C-OMPD, ca. 10 Mio. MCF-7 cells, 10 hours. The protocol:
Ten ^13C-spectra (proton decoupled) of ca. 6 mM fully-labeled ^13C-OMPD dissolved in cell culture medium with ca. 10 Mio. MCF-7 tumor cells immobilized in alginate beads were acquired during a total time of 10 hours within every hour.
The pH sensitive OMPD-peaks 1, 5 and 6 of zymonic acid were also observed in ^13C-NMR spectra of ^13C-OMPD dissolved in cell culture medium with MCF-7 tumor cells immobilized in alginate beads.

For `CC1(C(=O)O)C=C(O)C(=O)O1` (stereo not shown) [zymonic acid, 4-hydroxy-2-methyl-5-oxo-2,5-dihydrofuran-2-carboxylic acid], the “cytotoxicity (cell viability, MTT)” value in the series on HeLa cells is “not cytotoxic”. For the same compound, in the series with rats (20, 40 and 80 mM injections), the “behaviour of the animals” value is “No unusual behaviour”. Further, in the series with rats (20, 40 and 80 mM, 5 mL/kg, 3 rats, injections within one week), the survival after injections entry is listed as “survived all injections”. Moreover, the health problems result in the series with rats (20, 40 and 80 mM, even after 3 days post last injection) was “did not show health problems”. In addition, in series [1], the “pKa of the enolic group” value is on record as 6.95. The “agreement of NMR-measured pH with electrode pH” value with rat bladder is “Electrode pH measurements confirm the pH values measured by NMR spectroscopy”. The “decomposition in buffered solution” value in series [2] (buffered solution in water and D2O, 24 hours, also cites Montgomery et al., 1956) is recorded as “slowly decomposed into parapyruvate within a period of 24 hours”.
Take `C/C(=C/C(=O)C(=O)O)C(=O)O` [OMPD, (Z)-4-methyl-2-oxopent-3-enedioic acid]: the “cytotoxicity (cell viability, MTT)” value in the series with HeLa cells is reported as “not cytotoxic”. Besides, the “metabolism within tumor cells” value with MCF-7 tumor cells is given as “not metabolized within tumor cells”. Also, in series [2], the “stability in aqueous solutions” value was “stable in aqueous solutions”.
